The record followed here is US20150276751A1, “REAGENT FOR IMAGING INTRACELLULAR ACETYLATION” (JAPAN SCIENCE AND TECHNOLOGY AGENCY, priority 2012, published 2015).

A short description of data set [1]: Acetylation of compound 3 by compound 6 (acetyl-CoA analogue) with tributylphosphine in PBS. Particulars: compound 3 1 μM, tributylphosphine 10 mM, PBS pH 7.4, 1% DMSO, 25° C., ex 550 nm, em 575 nm. As to the method: The compound 3 (1 μM) was mixed with tributylphosphine (10 mM) as the acylation catalyst or acylation reaction-promoting agent, the compound 6 was added 1 minute afterward, and advance of the acetylation was measured over time at 25° C. in PBS (pH 7.4, 1% DMSO) in the same manner as that of Example 2. Fluorescence of 575 nm was measured with excitation at 550 nm. […] Correlation was observed between the fluorescence intensity and the concentration of the acetylating agent 1 minute after the addition of the acetylating agent (FIG. 2).

The nature of data set [2]: Absorption and fluorescence properties of the rhodamine derivative before and after acetylation. The data set is classed as physicochemical. Particulars: for fluorescence maximum: excitation at 550 nm; for absorption maximum / molar absorption coefficient ε at absorption maximum: in PBS (medium given for compound 3); for fluorescence quantum yield: in PBS, rhodamine B as control. The text has this:
The compound 3 (RH—NH2) obtained had the absorption maximum (ε=71400 M^−1cm^−1) at 546 nm in PBS, fluorescence maximum at 570 nm with excitation at 550 nm, and fluorescence quantum yield of 4.9×10^−4 as measured in PBS using rhodamine B as a control. The acetylated compound 4 (RH—NHAc) had the absorption maximum (ε=35500 M^−1cm^−1) at 553 nm, fluorescence maximum at 572 nm with excitation at 550 nm, and fluorescence quantum yield of 0.12.

The test system of data set [3] is HeLa cells. The data set is described as follows: Staining and mitochondrial localization in HeLa cells (double staining with TagCFP-Mito). The data set is classed as cell-based. As to the method: In order to visualize an intracellular acetylation, the following experiment was conducted by using the compound 3 as the rhodamine derivative. It is known that a positively charged rhodamine derivative structure such as tetramethylrhodamine migrates into cells and localizes in mitochondria (J. Circ. Res., 95, pp. 239-252, 2004; J. Biol. Chem., 264, pp. 8171-8178, 1989; Plos. One., 6, e23684, 2011; as especially for localization of 5-aminorhodamine derivatives in mitochondria, see, GB2283744 and U.S. Pat. No. 5,686,261). The compound 3 (10 μM) was allowed to act on the HeLa cells at 37° C. for 30 minutes in the Hanks' balanced salt solution (HBSS, 137 mM NaCl, 5.4 mM KCl, 1.3 mM CaCl2, 0.5 mM MgCl2, 0.4 mM MgSO4, 0.3 mM Na2HPO4, 0.4 mM KH2PO4, 4.2 mM NaHCO3, 5.6 mM D-glucose, 5 mM HEPES, adjusted to pH 7.4 with NaOH), the cells were washed twice with HBSS, and then fluorescence was measured.
The localization in the mitochondria of the HeLa cells was visualized by expression of TagCFP-Mito, which is a cyan fluorescent protein, and thereby confirmed. The HeLa cells were transfected with the pTagCFP-Mito vector (Evrogen) using Lipofectamine LTX (Invitrogen), and fluorescence was measured from 24 hours thereafter. The compound 3 was excited at 559 nm, and fluorescence of 580 to 680 nm was measured. TagCFP-Mito was excited at 440 nm, and fluorescence of 460 to 500 nm was measured. […]

For data set [4], the system named is HeLa cells. The data set is described as follows: Visualization of intracellular acetylation in HeLa cells by fluorescence enhancement. Type of data set: cell-based. How it is done: The acylation catalyst was added at the time point of 2 minutes, and N-methoxydiacetamide (NMD, 10 mM) was added as an acetylating agent at the time point of 7 minutes. Enhancement of the fluorescence intensity (F/F0) was calculated with an excitation wavelength of 550 nm and a fluorescence wavelength of 575 nm as an average of the results obtained from five cells. […] FIGS. 4, (c), (d), and (e) show color images of the HeLa cell after 1 minute, 5 minutes, and 10 minutes, respectively.
In view of the results of the model acetylation shown in Example 3, it is considered that enhancement of the intracellular fluorescence intensity was originated in acetylation advanced by physiological acetyl-CoA in the inside of mitochondria. […] Therefore, advance of the intracellular acetylation was successfully visualized by the compound 3 together with the physiological acetyl-CoA and the additionally added acetylating agent. It is known that the acetyl-CoA concentration in mitochondria is higher than the average intracellular acetyl-CoA concentration (J. Gen., Microbiol., 134, pp. 2249-2253, 1988), and the aforementioned results are consistent with this finding.

A short description of data set [5]: Acetylation of compound 3 by N-methoxydiacetamide in PBS with acylation catalyst, fluorescence change over time. Particulars: for increase in fluorescence intensity over time vs. no catalyst: PBS pH 7.4, 1% DMSO, 25° C. How it is done:
The compound 3 (1 μM) and an acylation catalyst or acylation reaction-promoting agent (10 mM) were dissolved in PBS (pH 7.4, containing 1% DMSO), N-methoxydiacetamide (NMD, 0.1M) was added as an acetylating agent 1 minute afterward, and change of fluorescence was measured over time at 25° C.

Setting [6] is: compound 3 1 μM, catalyst 10 mM, NMD 0.1M.

Turning to `CN(C)c1ccc2c(-c3ccc(N)cc3)c3ccc(=[N+](C)C)cc-3oc2c1.O=C([O-])C(F)(F)F` [compound 3, N-(9-(4-Aminophenyl)-6-(dimethylamino)-3H-xanthen-3-ylidene)-N-methylmethanaminium trifluoroacetate], the “increase of fluorescence on acetylation with compound 6” value in data set [1] was “Rapid increase of fluorescence was obtained”. For the same molecule, in data set [2], the fluorescence maximum came out at 570 nm, the absorption maximum is 546 nm, the “molar absorption coefficient ε at absorption maximum” value stood at 71400 M⁻¹ cm⁻¹ and the fluorescence quantum yield is reported as 4.9×10^−4. Further, in the data set with HeLa cells [3] (10 μM, 37° C., 30 minutes, HBSS), the “intracellular localization (staining image)” value is reported as “localization of the compound in the mitochondria”. In addition, in the data set with HeLa cells [3] (ex 559 nm, em 580 to 680 nm, HeLa cells transfected with pTagCFP-Mito), the “consistency of fluorescence image with TagCFP-Mito image” value is listed as “well consistent with the fluorescence image of the cyan fluorescence protein expressed in the mitochondria”. Also, in the data set with HeLa cells [4] (37° C., absence of acylation catalyst or reaction-promoting agent), the “enhancement of fluorescence intensity over time, no catalyst” value is reported as “enhancement of fluorescence intensity was not observed”. Besides, the “fluorescence intensity after further adding N-methoxydiacetamide” value in the data set with HeLa cells [4] (NMD 10 mM added at 7 minutes, after tributylphosphine 5 mM) was “the fluorescence intensity was further enhanced”. Besides, in the data set with HeLa cells [4] (compound 3 10 μM, tributylphosphine 5 mM added to medium, 37° C.), the “enhancement of intracellular fluorescence intensity with tributylphosphine” value is reported as “enhancement of intracellular fluorescence intensity was observed”.

In the case of `CC(=O)Nc1ccc(-c2c3ccc(=[N+](C)C)cc-3oc3cc(N(C)C)ccc23)cc1.CC(=O)[O-]` [compound 4, N-(9-(4-Acetamidophenyl)-6-(dimethylamino)-3H-xanthen-3-ylidene)-N-methylmethanaminium acetate], in data set [2], the fluorescence maximum came to 572 nm, the absorption maximum is listed as 553 nm, the “molar absorption coefficient ε at absorption maximum” value amounted to 35500 M⁻¹ cm⁻¹ and the fluorescence quantum yield is 0.12.

As to `CN(C)c1ccncc1` [dimethylaminopyridine], in data set [5] (setting [6]), the “increase in fluorescence intensity over time vs. no catalyst” value is “larger increase in fluorescence intensity was observed over time”.

For the molecule `CCCCP(CCCC)CCCC` [tributylphosphine], the “fluorescence intensity relative to that without addition of catalyst” value in data set [5] (5 minutes after addition, compound 3 1 μM, catalyst 10 mM, NMD 0.1M, PBS pH 7.4, 25° C.) was “about 5 times”. The “increase in reaction rate relative to reaction without catalyst” value in data set [5] (compared with rate at start of reaction without catalyst) was “about 5.5 times”. In addition, in data set [5] (setting [6]), the “increase in fluorescence intensity over time vs. no catalyst” value is “larger increase in fluorescence intensity was observed over time”.
